One data set has as its system hCAI. Further details: method as in PMID 12713833. The settings on record: pH 7.8; cited from earlier work.
In the next data set the test system is hCAII. Further details: method as in PMID 12713833. The settings on record: pH 7.8; cited from earlier work.
Data set [1] can be described thus: Esterase activity assay in whole-cell lysates. Format: biochemical, human. The settings on record: kcat/KM vs unmodified isoform.
A short description of data set [2]: Differential scanning fluorimetry. Format: physicochemical, human. How it is done:
The diminished activity of hCAII^S29E and hCAI^S30E can be attributed to protein unfolding or misfolding upon introduction of a charged residue close to the hydrophobic side of the ligand-binding pocket. The phosphomimic hCAII^S29E was only expressed as a soluble protein when using ArcticExpress E. coli at 10 °C but not with T7 Express or C43 (DE3) E. coli. In ArticExpress cells, a cold-adapted chaperonin is co-expressed to assist folding at low temperatures. In addition, hCAI^S30E expresses at a very low yield in the soluble fraction even with the ArcticExpress system, and below detectable levels in T7 Express or C43 (DE3) E. coli. Moreover, an S > E mutation at Ser29 in another cytosolic carbonic anhydrase isoform (hCAIII) destabilizes the protein and decreases the melting temperature from 59 °C to 43 °C in differential scanning fluorimetry (Figure S5).
A general note: In DSF a fluorescence change marks the thermal transition of the protein.

What is called Km is the substrate concentration at which the rate is half of its maximum. In the case of `CC(=O)Oc1ccc([N+](=O)[O-])cc1` [pNPA, p-nitrophenyl acetate], the Km was 15.4 mM with hCAI and 2.92 mM in the data set with hCAII.

As to “hCAI S30E: human carbonic anhydrase I phosphomimic, Ser30 to Glu”, the “fold decrease in catalytic activity compared to the respective unmodified isoform” value in data set [1] was determined as 2.7 fold.

B1: hCAIII: cytosolic human carbonic anhydrase isoform III (protein, UniProt P07451 2-260, looked up)
Carbonic anhydrase 3: AKEWGYASHNGPDHWHELFPNAKGENQSPVELHTKDIRHDPSLQPWSVSYDGGSAKTILNNGKTCRVVFDDTYDRSMLRGGPLPGPYRLRQFHLHWGSSDDHGSEHTVDGVKYAAELHLVHWNPKYNTFKEALKQRDGIAVIGIFLKIGHENGEFQIFLDALDKIKTKGKEAPFTKFDPSCLFPACRDYWTYQGSFTTPPCEECIVWLLLKEPMTVSSDQMAKLRSLLSSAENEPPVPLVSNWRPPQPINNRVVRASFK
Molecule B1 displayed a melting temperature in data set [2] of 59 °C.

Source of the values: paper PMC10253321, “Effects of Phosphorylation on the Activity, Inhibition and Stability of Carbonic Anhydrases” (International Journal of Molecular Sciences, 2023).
